{"source": "ChEMBL document CHEMBL4507294", "about": "“Data for DCP probe MSD-CYP11B2” (2021)", "key": {"[1]": {"target": "Acetylcholine receptor subunit alpha (Homo sapiens) (UniProt P02708)", "experiment": "Inhibition of Nicotinic Acetylcholine D1, Bungarotoxin at 10 µM in the Eurofins-Panlabs radioligand binding assay (Eurofins_assay_258700)", "conditions": "Compound concentration 10.0 uM"}, "[2]": {"target": "Cholecystokinin receptor type A (Homo sapiens) (UniProt P32238)", "experiment": "Inhibition of Cholecystokinin CCK1 (CCKA) at 10 µM in the Eurofins-Panlabs radioligand binding assay (Eurofins_assay_218020)", "conditions": "Compound concentration 10.0 uM"}, "[3]": {"target": "T1, Muscarinic acetylcholine receptor M1 (Homo sapiens) (UniProt P11229)", "T1 sequence (whole entry)": "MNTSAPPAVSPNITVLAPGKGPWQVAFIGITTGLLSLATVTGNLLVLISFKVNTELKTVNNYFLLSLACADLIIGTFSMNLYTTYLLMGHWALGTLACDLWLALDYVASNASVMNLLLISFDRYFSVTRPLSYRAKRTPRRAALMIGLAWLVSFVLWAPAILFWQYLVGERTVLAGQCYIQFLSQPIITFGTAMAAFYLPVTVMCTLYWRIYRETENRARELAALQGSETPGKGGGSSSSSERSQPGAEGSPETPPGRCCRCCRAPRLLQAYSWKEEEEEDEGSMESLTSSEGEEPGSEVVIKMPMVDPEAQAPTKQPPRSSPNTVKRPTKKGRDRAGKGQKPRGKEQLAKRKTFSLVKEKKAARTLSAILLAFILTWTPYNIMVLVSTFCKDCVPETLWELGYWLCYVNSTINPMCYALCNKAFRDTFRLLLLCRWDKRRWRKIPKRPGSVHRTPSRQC", "conditions": "Compound concentration 10.0 uM"}, "[4]": {"target": "Neuropeptide Y receptor type 1 (Homo sapiens) (UniProt P25929)", "sequence (P25929 whole entry)": "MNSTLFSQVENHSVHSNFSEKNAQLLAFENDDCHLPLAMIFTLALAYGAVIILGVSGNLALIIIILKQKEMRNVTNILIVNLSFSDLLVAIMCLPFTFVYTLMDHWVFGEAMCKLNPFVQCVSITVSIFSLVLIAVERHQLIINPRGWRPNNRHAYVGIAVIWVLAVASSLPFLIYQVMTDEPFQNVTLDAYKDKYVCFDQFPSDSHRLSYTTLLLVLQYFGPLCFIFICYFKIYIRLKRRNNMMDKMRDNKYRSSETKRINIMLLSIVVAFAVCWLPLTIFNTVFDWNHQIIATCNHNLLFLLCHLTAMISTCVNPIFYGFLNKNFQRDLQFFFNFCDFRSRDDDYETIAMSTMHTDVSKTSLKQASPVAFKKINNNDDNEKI", "experiment": "Inhibition of Neuropeptide Y Y1 at 10 µM in the Eurofins-Panlabs radioligand binding assay (Eurofins_assay_257010)", "conditions": "Compound concentration 10.0 uM"}, "[5]": {"target": "Melanocyte-stimulating hormone receptor (Homo sapiens) (UniProt Q01726)", "sequence (Q01726 whole entry, looked up)": "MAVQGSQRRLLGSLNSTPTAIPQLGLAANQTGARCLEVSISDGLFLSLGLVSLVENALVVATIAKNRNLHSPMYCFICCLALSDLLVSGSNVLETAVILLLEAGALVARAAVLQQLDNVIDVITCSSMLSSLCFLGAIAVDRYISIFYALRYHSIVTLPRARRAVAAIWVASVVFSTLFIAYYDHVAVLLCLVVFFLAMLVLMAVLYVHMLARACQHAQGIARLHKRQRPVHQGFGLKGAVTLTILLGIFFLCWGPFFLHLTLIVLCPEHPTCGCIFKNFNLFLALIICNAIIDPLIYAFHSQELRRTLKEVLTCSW", "experiment": "Melanocortin MC1 Eurofins-Panlabs radioligand binding assay", "conditions": "Compound concentration 10.0 uM"}, "[6]": {"target": "Adenosine receptor A2a (Homo sapiens) (UniProt P29274)", "conditions": "Compound concentration 10.0 uM"}, "[7]": {"target": "Cannabinoid receptor 1 (Homo sapiens) (UniProt P21554)", "conditions": "Compound concentration 10.0 uM"}, "[8]": {"target": "T2, 5-hydroxytryptamine receptor 2B (Homo sapiens, UniProt P41595)", "T2 sequence (P41595 whole entry)": "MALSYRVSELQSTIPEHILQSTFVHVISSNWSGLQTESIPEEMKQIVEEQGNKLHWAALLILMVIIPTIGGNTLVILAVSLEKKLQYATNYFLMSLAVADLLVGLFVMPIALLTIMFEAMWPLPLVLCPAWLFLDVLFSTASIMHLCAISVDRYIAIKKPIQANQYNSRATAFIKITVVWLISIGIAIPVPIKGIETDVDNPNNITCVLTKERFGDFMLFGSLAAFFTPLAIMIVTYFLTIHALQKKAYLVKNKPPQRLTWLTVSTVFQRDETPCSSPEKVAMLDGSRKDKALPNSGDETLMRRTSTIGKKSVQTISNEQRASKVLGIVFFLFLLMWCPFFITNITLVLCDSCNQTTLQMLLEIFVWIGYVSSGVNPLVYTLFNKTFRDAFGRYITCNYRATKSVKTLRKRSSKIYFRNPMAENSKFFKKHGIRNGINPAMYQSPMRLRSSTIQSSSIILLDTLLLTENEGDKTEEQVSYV", "experiment": "Panlabs assay (HTR2B)", "set-up": "compound concentration 10 uM"}, "Rattus norvegicus": {"species": "Rattus norvegicus", "experiment": "GABAA, Ro-15-1788, Hippocampus Eurofins-Panlabs radioligand binding assay", "set-up": "ligand concentration 1 nM", "conditions": "Compound concentration 10.0 uM"}, "[9]": {"target": "D(2) dopamine receptor (Homo sapiens) (UniProt P14416)", "sequence (P14416 whole entry)": "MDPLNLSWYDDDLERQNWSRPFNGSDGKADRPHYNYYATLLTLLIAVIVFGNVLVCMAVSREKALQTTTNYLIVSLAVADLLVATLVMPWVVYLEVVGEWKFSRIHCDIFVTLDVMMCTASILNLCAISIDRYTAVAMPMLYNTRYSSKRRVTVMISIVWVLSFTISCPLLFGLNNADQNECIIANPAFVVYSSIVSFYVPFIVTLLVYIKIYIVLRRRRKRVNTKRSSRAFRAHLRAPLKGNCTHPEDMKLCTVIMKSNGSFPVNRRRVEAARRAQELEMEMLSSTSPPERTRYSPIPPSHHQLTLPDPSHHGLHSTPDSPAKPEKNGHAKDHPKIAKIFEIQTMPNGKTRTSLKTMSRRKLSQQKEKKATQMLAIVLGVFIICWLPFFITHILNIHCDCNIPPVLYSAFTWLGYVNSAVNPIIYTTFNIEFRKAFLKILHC", "conditions": "Compound concentration 10.0 uM"}, "[10]": {"target": "Phosphodiesterase 3 (Homo sapiens) (UniProt Q14432+Q13370)", "experiment": "Inhibition of Phosphodiesterase PDE3 at compound concentration of 10.0 uM in the Eurofins-Panlabs enzyme assay (Eurofins_assay_152000)", "assay_type": "protein assay", "set-up": "substrate with concentration 1.01 uM [3H] cAMP + cAMP, incubation time 20 min, incubation temperature 25 C", "conditions": "Compound concentration 10.0 uM"}, "Homo sapiens": {"species": "Homo sapiens", "experiment": "Inhibition of Nicotinic Acetylcholine at compound concentration of 10.0 uM in the Eurofins-Panlabs radioligand binding assay (Eurofins_assay_258590)", "assay_type": "protein-complex assay", "conditions": "Compound concentration 10.0 uM"}, "[11]": {"target": "Beta-1 adrenergic receptor (Homo sapiens, UniProt P08588)", "sequence (P08588 whole entry)": "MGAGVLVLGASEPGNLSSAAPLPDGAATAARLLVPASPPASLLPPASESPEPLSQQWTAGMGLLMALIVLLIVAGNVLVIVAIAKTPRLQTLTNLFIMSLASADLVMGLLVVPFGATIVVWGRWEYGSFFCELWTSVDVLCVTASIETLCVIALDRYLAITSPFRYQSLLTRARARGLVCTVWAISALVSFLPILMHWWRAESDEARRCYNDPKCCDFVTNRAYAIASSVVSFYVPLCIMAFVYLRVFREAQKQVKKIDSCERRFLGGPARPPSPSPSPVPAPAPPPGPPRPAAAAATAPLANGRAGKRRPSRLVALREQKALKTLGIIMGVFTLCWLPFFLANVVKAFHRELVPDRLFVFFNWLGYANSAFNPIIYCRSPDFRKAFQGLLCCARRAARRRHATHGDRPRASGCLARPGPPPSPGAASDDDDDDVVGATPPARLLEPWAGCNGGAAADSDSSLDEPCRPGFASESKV", "experiment": "GPCRScan assay: inhibition of Beta1", "set-up": "radioligand conc. used [nm] 0.1 – 0.2, parental cells CHO Flp-In"}, "[12]": {"target": "Adenosine receptor A1 (Homo sapiens) (UniProt P30542)", "sequence (P30542 whole entry)": "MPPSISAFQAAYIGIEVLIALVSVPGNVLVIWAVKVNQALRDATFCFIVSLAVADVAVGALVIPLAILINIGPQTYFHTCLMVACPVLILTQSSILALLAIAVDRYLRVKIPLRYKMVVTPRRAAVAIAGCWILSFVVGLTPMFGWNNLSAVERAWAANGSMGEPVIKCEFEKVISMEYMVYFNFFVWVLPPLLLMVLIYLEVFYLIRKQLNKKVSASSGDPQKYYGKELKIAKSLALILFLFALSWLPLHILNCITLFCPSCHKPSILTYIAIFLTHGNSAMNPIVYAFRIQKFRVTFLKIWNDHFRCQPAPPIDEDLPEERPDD", "conditions": "Compound concentration 10.0 uM"}, "[13]": {"target": "Mu-type opioid receptor (Homo sapiens) (UniProt P35372)", "sequence (P35372 whole entry)": "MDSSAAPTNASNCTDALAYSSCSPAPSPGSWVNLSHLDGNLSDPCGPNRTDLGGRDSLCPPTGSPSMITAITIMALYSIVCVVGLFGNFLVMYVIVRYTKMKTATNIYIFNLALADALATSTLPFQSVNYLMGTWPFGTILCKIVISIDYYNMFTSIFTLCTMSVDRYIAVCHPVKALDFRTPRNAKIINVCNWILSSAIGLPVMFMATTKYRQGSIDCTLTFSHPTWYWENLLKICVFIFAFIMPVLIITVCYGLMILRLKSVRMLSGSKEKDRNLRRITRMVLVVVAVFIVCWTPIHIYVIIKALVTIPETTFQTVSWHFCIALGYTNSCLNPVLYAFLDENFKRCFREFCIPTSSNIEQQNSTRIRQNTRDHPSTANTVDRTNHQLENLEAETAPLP", "conditions": "Compound concentration 10.0 uM"}, "[14]": {"target": "Muscarinic acetylcholine receptor M3 (Homo sapiens) (UniProt P20309)", "sequence (P20309 whole entry, looked up)": "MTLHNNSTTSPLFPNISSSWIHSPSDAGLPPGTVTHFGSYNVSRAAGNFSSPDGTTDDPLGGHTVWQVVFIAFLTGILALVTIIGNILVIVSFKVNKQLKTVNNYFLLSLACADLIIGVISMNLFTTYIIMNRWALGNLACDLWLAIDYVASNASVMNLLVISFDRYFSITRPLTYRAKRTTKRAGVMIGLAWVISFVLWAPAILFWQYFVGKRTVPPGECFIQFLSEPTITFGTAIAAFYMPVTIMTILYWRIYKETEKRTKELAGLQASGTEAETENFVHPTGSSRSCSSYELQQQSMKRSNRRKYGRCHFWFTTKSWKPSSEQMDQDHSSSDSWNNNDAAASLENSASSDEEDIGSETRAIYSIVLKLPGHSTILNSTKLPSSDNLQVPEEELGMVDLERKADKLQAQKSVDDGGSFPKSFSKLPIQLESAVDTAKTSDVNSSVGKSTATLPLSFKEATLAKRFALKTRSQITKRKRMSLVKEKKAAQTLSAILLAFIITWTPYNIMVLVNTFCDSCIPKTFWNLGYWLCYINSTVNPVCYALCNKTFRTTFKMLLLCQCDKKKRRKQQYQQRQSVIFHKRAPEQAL", "conditions": "Compound concentration 10.0 uM"}, "[15]": {"target": "T3, Alpha-2B adrenergic receptor (Homo sapiens, UniProt P18089)", "T3 sequence (P18089 whole entry)": "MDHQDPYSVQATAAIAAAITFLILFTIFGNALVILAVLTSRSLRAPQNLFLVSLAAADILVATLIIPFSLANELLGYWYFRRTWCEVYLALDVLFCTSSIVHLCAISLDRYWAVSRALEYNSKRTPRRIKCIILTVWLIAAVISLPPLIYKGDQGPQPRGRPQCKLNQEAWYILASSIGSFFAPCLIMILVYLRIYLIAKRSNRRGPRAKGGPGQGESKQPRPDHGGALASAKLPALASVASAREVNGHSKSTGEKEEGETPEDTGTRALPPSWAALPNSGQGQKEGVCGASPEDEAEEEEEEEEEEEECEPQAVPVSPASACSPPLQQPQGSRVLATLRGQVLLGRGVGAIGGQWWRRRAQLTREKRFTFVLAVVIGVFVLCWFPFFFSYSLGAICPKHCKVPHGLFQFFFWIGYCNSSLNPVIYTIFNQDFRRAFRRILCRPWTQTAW", "experiment": "Panlabs assay (ADRA2B)", "set-up": "compound concentration 10 uM"}, "[16]": {"target": "Alpha-2C adrenergic receptor (Homo sapiens, UniProt P18825)", "sequence (P18825 whole entry)": "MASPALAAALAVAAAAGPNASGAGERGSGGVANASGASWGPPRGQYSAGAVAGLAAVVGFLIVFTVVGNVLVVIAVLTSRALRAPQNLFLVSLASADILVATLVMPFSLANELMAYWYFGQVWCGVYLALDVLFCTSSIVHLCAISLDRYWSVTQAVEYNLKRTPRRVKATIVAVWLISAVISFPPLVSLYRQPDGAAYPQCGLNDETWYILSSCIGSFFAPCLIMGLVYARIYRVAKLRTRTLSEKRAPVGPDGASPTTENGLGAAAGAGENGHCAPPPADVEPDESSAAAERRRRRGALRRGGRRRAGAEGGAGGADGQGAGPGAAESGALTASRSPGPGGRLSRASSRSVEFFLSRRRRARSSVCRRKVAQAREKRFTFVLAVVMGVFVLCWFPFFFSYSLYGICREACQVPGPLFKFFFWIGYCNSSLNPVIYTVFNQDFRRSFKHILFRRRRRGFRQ", "experiment": "GPCRScan assay: inhibition of Alpha2C", "set-up": "radioligand conc. used [nm] 0.5 – 1.0, parental cells stable MDCK"}, "[17]": {"target": "Alpha-1D adrenergic receptor (Homo sapiens) (UniProt P25100)", "sequence (P25100 whole entry)": "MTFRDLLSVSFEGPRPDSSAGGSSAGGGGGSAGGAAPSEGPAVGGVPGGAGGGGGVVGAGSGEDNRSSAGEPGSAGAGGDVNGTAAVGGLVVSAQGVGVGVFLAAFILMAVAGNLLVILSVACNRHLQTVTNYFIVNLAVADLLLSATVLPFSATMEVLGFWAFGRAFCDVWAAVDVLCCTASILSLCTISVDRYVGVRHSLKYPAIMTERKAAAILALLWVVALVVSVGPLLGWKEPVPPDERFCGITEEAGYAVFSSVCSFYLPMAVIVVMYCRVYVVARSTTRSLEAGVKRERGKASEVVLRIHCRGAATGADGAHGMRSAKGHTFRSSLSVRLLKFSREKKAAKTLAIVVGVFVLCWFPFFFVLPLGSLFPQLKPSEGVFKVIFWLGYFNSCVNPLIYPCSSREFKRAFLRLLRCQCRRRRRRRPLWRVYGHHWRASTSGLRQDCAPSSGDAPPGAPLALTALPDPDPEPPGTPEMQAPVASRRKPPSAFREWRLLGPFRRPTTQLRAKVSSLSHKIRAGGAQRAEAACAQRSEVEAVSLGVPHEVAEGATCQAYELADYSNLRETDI", "conditions": "Compound concentration 10.0 uM"}, "[18]": {"target": "Glutamate receptor ionotropic, kainate (Rattus norvegicus) (UniProt P22756+Q01812+P42260+P42264+Q63273)", "experiment": "Inhibition of Glutamate, Kainate at 10 µM in the Eurofins-Panlabs radioligand binding assay (Eurofins_assay_232700)", "conditions": "Compound concentration 10.0 uM"}, "[19]": {"target": "Alpha-2A adrenergic receptor (Homo sapiens, UniProt P08913)", "sequence (P08913 whole entry)": "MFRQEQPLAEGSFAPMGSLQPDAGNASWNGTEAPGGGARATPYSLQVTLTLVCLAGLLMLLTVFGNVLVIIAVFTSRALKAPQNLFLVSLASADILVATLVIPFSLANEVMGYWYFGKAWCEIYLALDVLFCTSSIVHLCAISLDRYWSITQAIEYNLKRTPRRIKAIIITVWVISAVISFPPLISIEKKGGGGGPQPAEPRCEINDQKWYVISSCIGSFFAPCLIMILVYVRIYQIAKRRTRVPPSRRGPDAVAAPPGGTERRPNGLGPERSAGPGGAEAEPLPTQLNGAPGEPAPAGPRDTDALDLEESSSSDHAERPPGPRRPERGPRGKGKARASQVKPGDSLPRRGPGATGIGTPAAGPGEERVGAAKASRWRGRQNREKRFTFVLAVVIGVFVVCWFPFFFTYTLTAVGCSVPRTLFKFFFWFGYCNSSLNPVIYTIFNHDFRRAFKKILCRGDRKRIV", "experiment": "GPCRScan assay: inhibition of Alpha2A", "set-up": "radioligand conc. used [nm] 1.0 – 3.0, parental cells stable MDCK"}, "[20]": {"target": "T2, 5-hydroxytryptamine receptor 2B"}, "[21]": {"target": "T4, Muscarinic acetylcholine receptor M2 (Homo sapiens) (UniProt P08172)", "T4 sequence (whole entry)": "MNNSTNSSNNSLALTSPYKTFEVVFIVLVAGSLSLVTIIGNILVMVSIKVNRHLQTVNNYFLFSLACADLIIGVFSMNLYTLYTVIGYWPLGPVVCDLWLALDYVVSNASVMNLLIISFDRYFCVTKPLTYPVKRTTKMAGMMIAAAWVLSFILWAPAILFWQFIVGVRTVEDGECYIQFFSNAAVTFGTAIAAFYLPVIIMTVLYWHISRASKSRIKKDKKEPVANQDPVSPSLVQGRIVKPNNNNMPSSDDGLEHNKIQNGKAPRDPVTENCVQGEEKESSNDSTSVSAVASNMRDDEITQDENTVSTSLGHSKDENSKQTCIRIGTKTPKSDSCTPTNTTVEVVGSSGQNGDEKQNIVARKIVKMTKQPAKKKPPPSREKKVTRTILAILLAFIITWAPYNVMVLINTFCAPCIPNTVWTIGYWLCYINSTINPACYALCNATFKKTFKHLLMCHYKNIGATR", "conditions": "Compound concentration 10.0 uM"}, "[22]": {"target": "Histamine H4 receptor (Homo sapiens) (UniProt Q9H3N8)", "conditions": "Compound concentration 10.0 uM"}, "[23]": {"target": "Sodium-dependent serotonin transporter (Homo sapiens) (UniProt P31645)", "conditions": "Compound concentration 10.0 uM"}}, "note": "Activity calls are given as the source filed them. The calls are words filed in the database; no cut-off is given here.", "data": [{"compound": "CC(C)(O)c1cncc(-c2nc3ccc(F)cc3n2C2CC2)c1", "note": "[MSD-CYP11B2]", "values": [{"measurement": "inhibition", "setting": "[1]", "value": 0, "unit": "%"}, {"measurement": "inhibition", "setting": "[2]", "value": 4, "unit": "%"}, {"measurement": "inhibition", "setting": "[3]", "value": -4, "unit": "%"}, {"measurement": "inhibition", "setting": "[4]", "value": 11, "unit": "%"}, {"measurement": "inhibition", "setting": "[5]", "value": -1, "unit": "%"}, {"measurement": "inhibition", "setting": "[6]", "value": -5, "unit": "%"}, {"measurement": "inhibition", "setting": "[7]", "value": 7, "unit": "%"}, {"measurement": "IC50", "setting": "[8]", "value": 5330, "unit": "nM"}, {"measurement": "inhibition", "setting": "Rattus norvegicus", "value": 12, "unit": "%"}, {"measurement": "inhibition", "setting": "[9]", "value": -4, "unit": "%"}, {"measurement": "inhibition", "setting": "[10]", "value": 10, "unit": "%"}, {"measurement": "inhibition", "setting": "Homo sapiens", "value": -3, "unit": "%"}, {"measurement": "Ki", "setting": "[11]", "value": 2370, "unit": "nM"}, {"measurement": "inhibition", "setting": "[12]", "value": 20, "unit": "%"}, {"measurement": "inhibition", "setting": "[13]", "value": 7, "unit": "%"}, {"measurement": "inhibition", "setting": "[14]", "value": 2, "unit": "%"}, {"measurement": "IC50", "setting": "[15]", "value": "4700 nM (active)"}, {"measurement": "Ki", "setting": "[16]", "value": 626, "unit": "nM"}, {"measurement": "inhibition", "setting": "[17]", "value": 2.58, "unit": "%"}, {"measurement": "inhibition", "setting": "[18]", "value": -5, "unit": "%"}, {"measurement": "Ki", "setting": "[19]", "value": 2610, "unit": "nM"}, {"measurement": "inhibition", "setting": "[20]; Compound concentration 0.01 uM", "value": -2, "unit": "%"}, {"measurement": "inhibition", "setting": "[20]; Compound concentration 0.1 uM", "value": -5, "unit": "%"}, {"measurement": "inhibition", "setting": "[20]; Compound concentration 1.0 uM", "value": 17, "unit": "%"}, {"measurement": "inhibition", "setting": "[20]; Compound concentration 10.0 uM", "value": 65, "unit": "%"}, {"measurement": "inhibition", "setting": "[21]", "value": 6, "unit": "%"}]}, {"compound": "FC(F)(F)c1ccc2c(c1)nc(-c1cccnc1)n2C1CC1", "note": "[MSD-CYP11B2-Negative-control]", "values": [{"measurement": "inhibition", "setting": "[22]", "value": -9.43, "unit": "%"}, {"measurement": "inhibition", "setting": "[23]", "value": -5.44, "unit": "%"}]}]}
